Reference: patent US20050282755A1, “Compositions having antimicrobial activity and uses thereof” (priority 2004, published 2005)
Values after ≈ are worked out from the molar mass of the structure shown. Where two headings read alike, the source gives them in different places. Non-standard residues stand in square brackets, D forms with d. Residues, ends and D or L forms follow the SMILES beside them. *: point of attachment. Lauroyl = CCCCCCCCCCCC(=O)*

Legend:
Assay type in all cases: cell-based
[1] = test system: Staphylococcus aureus ATCC 29213; assay: MIC, NCCLS M7-A6 broth microdilution, cation-adjusted Mueller Hinton broth (Table 9, no superscript)
Summary of the method: (§1)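 CAMHB microdilution; final inoculum 5×10^5–1×10^6 CFU/milliliter from log-phase culture; overnight, 37° C; MIC = lowest peptide conc. without visible growth (turbidity) vs no-peptide control.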

[2] = test system: Pseudomonas aeruginosa ATCC 27853; assay: MIC, NCCLS M7-A6 broth microdilution (Table 9, no superscript)
Summary of the method: as §1

[3] = test system: Salmonella dublin (Lane); assay: as above
Summary of the method: as §1

[4] = test system: Staphylococcus epidermidis ATCC 12228; assay: as above
Summary of the method: as §1

[5] = test system: Escherichia coli ATCC 25922; assay: as above
Summary of the method: as §1

[6] = test system: Candida albicans ATCC 18804; assay: MIC in yeasts, NCCLS M27-A2 broth microdilution, RPMI 1640 (Table 9, letter e)
Procedure: Briefly, RPMI 1640 supplemented with glutamine and phenol red as a pH indicator was used in the broth microdilution method. A 96-well plate was inoculated so that the final inoculum of yeast for each well contained between 0.5×10^3 and 2.5×10^3 CFU/milliliter. […] Plates were incubated for 24 to 48 hours at 37° C. The lowest concentration of peptide that contained no visible growth was determined as the MIC. MIC values that utilized this method of MIC determination are indicated in Table 9 with a subscript letter “e.” “Peptide Number” corresponds to peptide compositions and corresponding designations in Table 3.

[7] = no superscript: NCCLS M7-A6 broth microdilution

| MIC S. aureus ([1]; ATCC 29213) [µg/mL] | MIC P. aeruginosa ([2]; ATCC 27853) [µg/mL] | MIC S. dublin [3] [µg/mL] | MIC S. epidermidis ([4]; ATCC 12228) [µg/mL] | MIC E. coli ([5]; ATCC 25922) [µg/mL] | MIC C. albicans ([6]; ATCC 18804) [e ug/mL] | Molecule | MIC S. aureus [1, 7] [µg/mL] | MIC P. aeruginosa [2, 7] [µg/mL] | MIC S. dublin [3, 7] [µg/mL] | MIC S. epidermidis [4, 7] [µg/mL] | MIC E. coli [5, 7] [µg/mL] | MIC C. albicans ([6]; letter e: NCCLS M27-A2 broth microdilution, RPMI 1640) [e ug/mL] |
| --- | --- | --- | --- | --- | --- | --- | --- | --- | --- | --- | --- | --- |
| 32 (≈ 21.4 µM) | 64 (≈ 42.8 µM) | >64 | 16 (≈ 10.7 µM) | >64 | 16 | CCCCCCCCCCCC(=O)N[C@H](CCCNC(=N)N)C(=O)N[C@H](CO)C(=O)N[C@H](CCCNC(=N)N)C(=O)N[C@H](Cc1c[nH]c2ccccc12)C(=O)N[C@H](CCCNC(=N)N)C(=O)N[C@H](CC(=O)O)C(=O)N[C@@H](C(=O)N[C@H](C)C(=O)N[C@H](CCCNC(=N)N)C(=O)N[C@H](CC(N)=O)C(N)=O)C(C)C [Peptide 117, Lauryl-rsrwrdvarn-NH2] (Lauroyl-[dR][dS][dR][dW][dR][dD][dV][dA][dR][dN]-NH2) |  |  |  |  |  |  |
| >64 | >64 | >64 | 32 (≈ 20.9 µM) | >64 | >64 | CCCCCCCCCCCC(=O)N[C@H](Cc1c[nH]c2ccccc12)C(=O)N[C@H](CCCNC(=N)N)C(=O)N[C@H](CC(=O)O)C(=O)N[C@@H](C(=O)N[C@H](C)C(=O)N[C@H](CCCNC(=N)N)C(=O)N[C@H](CC(N)=O)C(=O)N[C@H](Cc1ccccc1)C(=O)N[C@H](CCSC)C(=O)N[C@H](CCCNC(=N)N)C(N)=O)C(C)C [Peptide 129, Lauryl-wrdvarnfmr-NH2] (Lauroyl-[dW][dR][dD][dV][dA][dR][dN][dF][dM][dR]-NH2) |  |  |  |  |  |  |

More lines, now with the values behind:

| Molecule | MIC S. aureus ([1]; ATCC 29213) [µg/mL] | MIC P. aeruginosa ([2]; ATCC 27853) [µg/mL] | MIC S. dublin [3] [µg/mL] | MIC S. epidermidis ([4]; ATCC 12228) [µg/mL] | MIC E. coli ([5]; ATCC 25922) [µg/mL] | MIC C. albicans ([6]; ATCC 18804) [e ug/mL] | MIC S. aureus [1, 7] [µg/mL] | MIC P. aeruginosa [2, 7] [µg/mL] | MIC S. dublin [3, 7] [µg/mL] | MIC S. epidermidis [4, 7] [µg/mL] | MIC E. coli [5, 7] [µg/mL] | MIC C. albicans ([6]; letter e: NCCLS M27-A2 broth microdilution, RPMI 1640) [e ug/mL] |
| --- | --- | --- | --- | --- | --- | --- | --- | --- | --- | --- | --- | --- |
| CCCCCCCCCCCC(=O)N[C@@H](CCCNC(=N)N)C(=O)N[C@@H](CO)C(=O)N[C@@H](CCCNC(=N)N)C(=O)N[C@@H](Cc1c[nH]c2ccccc12)C(=O)N[C@@H](CCCNC(=N)N)C(=O)N[C@@H](CC(=O)O)C(=O)N[C@H](C(=O)N[C@@H](C)C(=O)N[C@@H](CCCNC(=N)N)C(=O)N[C@@H](CC(N)=O)C(=O)N[C@@H](Cc1ccccc1)C(=O)N[C@@H](CC(C)C)C(=O)N[C@@H](CCCNC(=N)N)C(N)=O)C(C)C [Peptide 135, Lauryl-RSRWRDVARNFLR-NH2] (Lauroyl-RSRWRDVARNFLR-NH2) | 2 (≈ 1.05 µM) | 4 (≈ 2.09 µM) | 2 (≈ 1.05 µM) | 1 (≈ 0.523 µM) | 4 (≈ 2.09 µM) | 2 |  |  |  |  |  |  |
| Lauryl-dvarfm-NH2 [Peptide 125] |  |  |  |  |  |  | >64 | >64 | >64 | >64 | >64 | >64 |
| CCCCCCCCCCCC(=O)N[C@@H](CCCNC(=N)N)C(=O)N[C@@H](CO)C(=O)N[C@@H](CCCNC(=N)N)C(=O)N[C@@H](Cc1c[nH]c2ccccc12)C(=O)N[C@@H](CCCNC(=N)N)C(=O)N[C@@H](CC(=O)O)C(=O)N[C@@H](Cc1c[nH]c2ccccc12)C(=O)N[C@@H](Cc1c[nH]c2ccccc12)C(=O)N[C@@H](CCCNC(=N)N)C(=O)N[C@@H](CC(N)=O)C(=O)N[C@@H](Cc1c[nH]c2ccccc12)C(=O)N[C@@H](CCSC)C(=O)N[C@@H](CCCNC(=N)N)C(=O)N[C@@H](CC(C)C)C(=O)N[C@@H](CC(C)C)C(N)=O [Peptide 148, Lauryl-RSRWRDWWRNWMRLL-NH2] (Lauroyl-RSRWRDWWRNWMRLL-NH2) | >64 | >64 | >64 | >64 | >64 | 4 |  |  |  |  |  |  |
